Data taken from ChEMBL document CHEMBL5303304, “EUbOPEN Chemogenomics Library - IncuCyte” (2023).

Key:
Format in all cases: toxicity, cell-based
HEK-293T = assay: Incucyte cell viability with HEK293T; conditions: human, 10 µM, compound concentration 10 uM
Fibroblast = assay: Incucyte cell viability with human fibroblast; conditions: 10 µM, compound concentration 10 uM
U2OS = assay: Incucyte cell viability with U2OS; conditions: human, 10 µM, compound concentration 10 uM
Also: unitless GR value; below 1 slowed growth and below 0 cell loss.

For `CC[C@@H](C(=O)OC)n1c(=O)c2ccccc2n(Cc2cn(C)c3cccc(C)c23)c1=O`, the “Growth Rate” value (HEK-293T; 0 h, replicate number 2) was -0.42, the “Growth Rate” value (Fibroblast; 0 h, replicate number 1) was -1 and the “Growth Rate” value (Fibroblast; 6 h, replicate number 1) was 0.75. For the same molecule, the “Growth Rate” value (Fibroblast; 6 h, replicate number 2) was -0.9, the “Growth Rate” value (Fibroblast; 12 h, replicate number 1) was 1 and the “Growth Rate” value (Fibroblast; 12 h, replicate number 2) was 0.49. The “Growth Rate” value (Fibroblast; 18 h, replicate number 1) was 0.75, the “Growth Rate” value (Fibroblast; 18 h, replicate number 2) was 0.48 and the “Growth Rate” value (U2OS; 0 h, replicate number 2) was 0.16. For the same molecule, the “Growth Rate” value (U2OS; 12 h, replicate number 2) was 0.97, the “Growth Rate” value (U2OS; 18 h, replicate number 2) was 0.96 and the “Growth Rate” value (U2OS; 24 h, replicate number 1) was 0.92. For the same molecule, the “Growth Rate” value (U2OS; 24 h, replicate number 2) was 0.9.
`COc1cc(C)c(S(=O)(=O)N(C)CCOCC(=O)N(C)[C@H]2CCC[C@@H](N3CCN(C)CC3)C2)c(C)c1.O=C(O)C(O)C(O)C(=O)O` was tested, and the “Growth Rate” value (HEK-293T; 0 h, replicate number 2) was 0.26, the “Growth Rate” value (Fibroblast; 0 h, replicate number 1) was -1 and the “Growth Rate” value (Fibroblast; 6 h, replicate number 1) was 0.87. For the same molecule, the “Growth Rate” value (Fibroblast; 6 h, replicate number 2) was -0.57, the “Growth Rate” value (Fibroblast; 12 h, replicate number 2) was 0.57 and the “Growth Rate” value (Fibroblast; 18 h, replicate number 1) was 0.93. The “Growth Rate” value (Fibroblast; 18 h, replicate number 2) was 0.67, the “Growth Rate” value (Fibroblast; 24 h, replicate number 2) was 0.92 and the “Growth Rate” value (U2OS; 12 h, replicate number 2) was 0.86.
In the case of `CCc1nc(C2CCC2)n2nc(-c3ccccc3)[nH]c(=O)c12`, the “Growth Rate” value (HEK-293T; 0 h, replicate number 2) is reported as -0.05, the “Growth Rate” value (HEK-293T; 6 h, replicate number 1) is reported as -0.09 and the “Growth Rate” value (HEK-293T; 12 h, replicate number 1) is reported as 0.44. For the same molecule, the “Growth Rate” value (HEK-293T; 12 h, replicate number 2) was 0.76, the “Growth Rate” value (HEK-293T; 18 h, replicate number 1) was 0.64 and the “Growth Rate” value (HEK-293T; 18 h, replicate number 2) was 0.76. The “Growth Rate” value (HEK-293T; 24 h, replicate number 1) was 0.75, the “Growth Rate” value (HEK-293T; 24 h, replicate number 2) was 0.91 and the “Growth Rate” value (Fibroblast; 6 h, replicate number 2) was -0.72. The “Growth Rate” value (Fibroblast; 12 h, replicate number 2) was -0.29, the “Growth Rate” value (Fibroblast; 18 h, replicate number 2) was 0.5 and the “Growth Rate” value (Fibroblast; 24 h, replicate number 2) was 0.86. For the same molecule, the “Growth Rate” value (U2OS; 0 h, replicate number 1) was 0.68, the “Growth Rate” value (U2OS; 6 h, replicate number 1) was 0.84 and the “Growth Rate” value (U2OS; 18 h, replicate number 2) was 0.95.
In the case of `CO[C@@H](C)CN1CC[C@]2(C)c3cc(O)ccc3C[C@H]1C2(C)C.Cl`, the “Growth Rate” value (HEK-293T; 0 h, replicate number 2) is reported as 0.15, the “Growth Rate” value (Fibroblast; 0 h, replicate number 1) is reported as -1 and the “Growth Rate” value (Fibroblast; 0 h, replicate number 2) is reported as -0.8. For the same molecule, the “Growth Rate” value (Fibroblast; 6 h, replicate number 1) was 0.93, the “Growth Rate” value (Fibroblast; 12 h, replicate number 2) was 0.89 and the “Growth Rate” value (Fibroblast; 18 h, replicate number 1) was 1. For the same molecule, the “Growth Rate” value (U2OS; 0 h, replicate number 1) was 0.91, the “Growth Rate” value (U2OS; 6 h, replicate number 1) was 0.69 and the “Growth Rate” value (U2OS; 6 h, replicate number 2) was 0.47. For the same molecule, the “Growth Rate” value (U2OS; 12 h, replicate number 1) was 0.82.
With `CC(C)N(C(=O)C1CCOCC1)c1cc(F)c(Oc2ncc(Cn3nccn3)cc2C(F)(F)F)cc1C(=O)O` the “Growth Rate” value (HEK-293T; 0 h, replicate number 2) was 0.61, the “Growth Rate” value (Fibroblast; 0 h, replicate number 1) was 0.24 and the “Growth Rate” value (Fibroblast; 0 h, replicate number 2) was -0.36. The “Growth Rate” value (Fibroblast; 6 h, replicate number 1) was 0.7, the “Growth Rate” value (Fibroblast; 12 h, replicate number 1) was 0.85 and the “Growth Rate” value (U2OS; 0 h, replicate number 1) was 0.83. The “Growth Rate” value (U2OS; 6 h, replicate number 1) was 0.91, the “Growth Rate” value (U2OS; 18 h, replicate number 2) was 0.98 and the “Growth Rate” value (U2OS; 24 h, replicate number 2) was 0.93.
In the case of `CN1CCN(C(=O)c2ccc(N(C)c3ncc(C(F)(F)F)c(N[C@@H]4CCC[C@@H]4C(N)=O)n3)cc2)CC1.Cl`, the “Growth Rate” value (HEK-293T; 0 h, replicate number 2) is reported as 0.56, the “Growth Rate” value (HEK-293T; 6 h, replicate number 1) is reported as 1 and the “Growth Rate” value (HEK-293T; 6 h, replicate number 2) is reported as 0.56. For the same molecule, the “Growth Rate” value (HEK-293T; 12 h, replicate number 1) was 0.91, the “Growth Rate” value (Fibroblast; 6 h, replicate number 2) was -0.99 and the “Growth Rate” value (Fibroblast; 12 h, replicate number 2) was -0.02. For the same molecule, the “Growth Rate” value (Fibroblast; 18 h, replicate number 2) was 0.35, the “Growth Rate” value (Fibroblast; 24 h, replicate number 2) was 0.9 and the “Growth Rate” value (U2OS; 24 h, replicate number 2) was 1.
`N#Cc1ccc(C#CC[C@@H](C#N)NC(=O)[C@H]2CCCCN2)cc1F.O=C(O)C(F)(F)F` was tested, and the “Growth Rate” value (HEK-293T; 0 h, replicate number 2) was -0.1, the “Growth Rate” value (Fibroblast; 0 h, replicate number 1) was -1 and the “Growth Rate” value (Fibroblast; 6 h, replicate number 1) was 0.94. For the same molecule, the “Growth Rate” value (Fibroblast; 18 h, replicate number 1) was 0.86, the “Growth Rate” value (Fibroblast; 24 h, replicate number 1) was 0.92 and the “Growth Rate” value (U2OS; 0 h, replicate number 2) was 0.12. The “Growth Rate” value (U2OS; 6 h, replicate number 1) was 0.86, the “Growth Rate” value (U2OS; 6 h, replicate number 2) was 0.95 and the “Growth Rate” value (U2OS; 12 h, replicate number 2) was 0.78. For the same molecule, the “Growth Rate” value (U2OS; 18 h, replicate number 2) was 0.73 and the “Growth Rate” value (U2OS; 24 h, replicate number 2) was 0.73.
With `COc1cccc(-c2c(C)c(Cc3c(F)cccc3C(F)(F)F)c3n(c2=O)[C@@H]([C@@H](N)c2ccccc2)CS3)c1F` the “Growth Rate” value (HEK-293T; 0 h, replicate number 2) was -0.28, the “Growth Rate” value (HEK-293T; 12 h, replicate number 2) was 0.52 and the “Growth Rate” value (HEK-293T; 18 h, replicate number 1) was 0.72. For the same molecule, the “Growth Rate” value (HEK-293T; 18 h, replicate number 2) was 0.5, the “Growth Rate” value (HEK-293T; 24 h, replicate number 1) was 0.6 and the “Growth Rate” value (HEK-293T; 24 h, replicate number 2) was 0.46. The “Growth Rate” value (Fibroblast; 0 h, replicate number 1) was -1, the “Growth Rate” value (Fibroblast; 6 h, replicate number 1) was 0.51 and the “Growth Rate” value (Fibroblast; 6 h, replicate number 2) was -0.66. For the same molecule, the “Growth Rate” value (Fibroblast; 12 h, replicate number 2) was 0.73, the “Growth Rate” value (Fibroblast; 18 h, replicate number 1) was 0.92 and the “Growth Rate” value (Fibroblast; 24 h, replicate number 1) was 0.83. The “Growth Rate” value (Fibroblast; 24 h, replicate number 2) was 0.87, the “Growth Rate” value (U2OS; 0 h, replicate number 1) was 0.81 and the “Growth Rate” value (U2OS; 0 h, replicate number 2) was -0.8. For the same molecule, the “Growth Rate” value (U2OS; 6 h, replicate number 1) was 0.48, the “Growth Rate” value (U2OS; 6 h, replicate number 2) was 0.4 and the “Growth Rate” value (U2OS; 12 h, replicate number 1) was 0.52. The “Growth Rate” value (U2OS; 12 h, replicate number 2) was 0.75, the “Growth Rate” value (U2OS; 18 h, replicate number 1) was 0.62 and the “Growth Rate” value (U2OS; 18 h, replicate number 2) was 0.91. The “Growth Rate” value (U2OS; 24 h, replicate number 1) was 0.37 and the “Growth Rate” value (U2OS; 24 h, replicate number 2) was 0.93.
`CN(C)C(=O)c1cc2cnc(Nc3ccc(N4CCN(CCCCNC(=O)COc5cccc6c5C(=O)N(C5CCC(=O)NC5=O)C6=O)CC4)cn3)nc2n1C1CCCC1` (stereo not drawn) was tested, and the “Growth Rate” value (HEK-293T; 0 h, replicate number 2) was 0.78, the “Growth Rate” value (HEK-293T; 6 h, replicate number 1) was 0.52 and the “Growth Rate” value (HEK-293T; 6 h, replicate number 2) was 0.46. For the same molecule, the “Growth Rate” value (HEK-293T; 12 h, replicate number 2) was 0.81, the “Growth Rate” value (HEK-293T; 18 h, replicate number 1) was 0.88 and the “Growth Rate” value (HEK-293T; 18 h, replicate number 2) was 0.67. The “Growth Rate” value (HEK-293T; 24 h, replicate number 1) was 1, the “Growth Rate” value (HEK-293T; 24 h, replicate number 2) was 0.81 and the “Growth Rate” value (Fibroblast; 0 h, replicate number 1) was -1. The “Growth Rate” value (U2OS; 0 h, replicate number 1) was -1, the “Growth Rate” value (U2OS; 0 h, replicate number 2) was 0.74 and the “Growth Rate” value (U2OS; 6 h, replicate number 2) was 0.65. For the same molecule, the “Growth Rate” value (U2OS; 18 h, replicate number 1) was 0.93 and the “Growth Rate” value (U2OS; 24 h, replicate number 1) was 0.95.
